According to patent US10172909B2, “Neuropeptide analogs, compositions, and methods for treating pain” (NeuroAdjuvants, Inc., priority 2010, dated 2019):
Blank lines part the entries; values can stand above or below the molecule they belong to. Square brackets hold non-standard residues; d marks the D form. Ends that are not written are not given here. Peptide text beside a SMILES is read from it. * marks the point of attachment. MeO(CH2CH2O)23CH2CH2CO = COCCOCCOCCOCCOCCOCCOCCOCCOCCOCCOCCOCCOCCOCCOCCOCCOCCOCCOCCOCCOCCOCCOCCOCCC(=O)*; α‑Lnn = alpha-linolenic acid on Lys, CC/C=C\C/C=C\C/C=C\CCCCCCCC(=O)*; NMeW = CN[C@@H](Cc1c[nH]c2ccccc12)C(=O)O; MPEG24 = PEG24 on Lys (Lys-MPEG_24); Palmitoyl = CCCCCCCCCCCCCCCC(=O)*; MPEG4 = PEG4 on Lys (Lys-MPEG_4); Ahx = NCCCCCC(=O)O; Sar = CNCC(=O)O

Columns and labels:
mice = test: formalin test of acute and chronic hyperalgesia in mice; type: in vivo; parameters: AUC Acute: unit not given beside the values; settings: mouse formalin test; for AUC Acute / AUC Inflammatory: i.p., licking AUC as percentage of control AUC, mean ± S.E.M., n=8
Experimental: Gal-93 and other MEGylated analogs were tested using the formalin test of acute and chronic hyperalgesia in mice. The formalin test was performed according to the method described by Tjolsen et al. (Tjolsen A, Berge O G, Hunskaar S, Rosland J H, Hole K. The Formalin Test: An Evaluation of the Method. Pain 53(2), 237; 1992). More specifically, an injection of 0.5% formalin is made into the plantar region of the right hind paw of a mouse. This elicits a distinct behavioral profile in response to the formalin injection characterized by the mouse licking the affected paw. The behavior is characteristically biphasic in nature. For example, immediately following the injection the mouse intensely licks the paw for approximately 5-10 min. This initial behavior is considered phase 1 (acute) and is thought to be mediated primarily by chemical activation of local C-fibers. The acute phase is followed by a brief latent (usually <5 min) period where there is little or no behavioral activity. A more prolonged (about 20 to 30 min) period of licking then ensues which constitutes phase 2 of the response (inflammatory). Prior to the administration of the test drug or vehicle, each mouse undergoes a 15-min conditioning period in one of several 6″ tall plexiglass cages (4″ diameter) that are placed in front of a mirror. It is in these tubes that mice are observed for the licking activity for the duration of the experiment. Following conditioning, the test substance is dosed i.p. after which the mouse is returned to its home tube. At the TPE of the test substance, formalin is injected sub-dermally into the plantar surface of the right hind foot in a volume of 20 μl with a 27 gauge stainless steel needle attached to a Hamilton syringe. The bevel of the needle is placed facing down toward the skin surface.
The cumulative length of licking for each 2-min time period was recorded. An animal receiving the requisite volume of vehicle was alternated with each mouse given the test peptide. Area under the curve (AUC) and subsequent percent of control for drug-treated animal groups (n=8) was determined using the GraphPad Prism Version 3.03. Total AUC was calculated for both the test substance and control groups for both the acute and inflammatory phases. The AUC for individual animals for each phase was also calculated and converted to percentage of total AUC of control. The average and S.E.M. for both the drug treated and control percentages were then calculated and tested for significant differences.

Sprague-Dawley rats = settings: rat, in vivo, iv

Molecule: WTLNSAGYLLGPKK(Lys-MPEG4)K-NH2 (WTLNSAGYLLGPKKK(MPEG4)K-NH2) [Gal-103]
- AUC Acute (mice): 66.3 ± 14.6
- AUC Inflammatory (mice): 75.6 ± 8.9

Molecule: (N-Methyl-Trp)TLNSAGYLLGPKK(Lys-MPEG4)K-NH2 ([NMeW]TLNSAGYLLGPKKK(MPEG4)K-NH2) [Gal-104]
- duration of licking, inflammatory phase (mice; result in words): significantly reduced

- HCT 30 min (Sprague-Dawley rats): 42 ± 2
- HCT 60 min (Sprague-Dawley rats): 42 ± 1
- Phenylephrine post-treatment response BP max (Sprague-Dawley rats): 161 ± 4
- Phenylephrine post-treatment response HR min (Sprague-Dawley rats): 291 ± 26
- glucose 30 min (Sprague-Dawley rats): 78 ± 5
- glucose 60 min (Sprague-Dawley rats): 73 ± 4
- plasma protein 30 min (Sprague-Dawley rats): 6.5 ± 0.4
- plasma protein 60 min (Sprague-Dawley rats): 6.8 ± 0.3
- temperature 30 min (Sprague-Dawley rats): 37.2 ± 0.2
- temperature 60 min (Sprague-Dawley rats): 36.9 ± 0.4
Molecule: CC[C@H](C)[C@H](NC(=O)[C@H](Cc1ccc(O)cc1)NC(=O)[C@H](Cc1c[nH]cn1)NC(=O)[C@H](CCCNC(=N)N)NC(=O)[C@H](C)NC(=O)CCCCCNC(=O)[C@H](CCCCNC(=O)CCOCCOCCOCCOCCOCCOCCOCCOCCOCCOCCOCCOCCOCCOCCOCCOCCOCCOCCOCCOCCOCCOCCOCCOC)NC(=O)[C@H](CCCCN)NC(=O)[C@H](CCCCN)NC(=O)[C@H](Cc1ccc(O)cc1)NC(C)=O)C(=O)N[C@@H](CC(N)=O)C(=O)N[C@@H](CC(C)C)C(=O)N[C@H](C(=O)N[C@H](C(=O)N[C@@H](CCCNC(=N)N)C(=O)N[C@@H](CCC(N)=O)C(=O)N[C@@H](CCCNC(=N)N)C(=O)N[C@@H](Cc1ccc(O)cc1)C(N)=O)[C@@H](C)O)[C@@H](C)CC [NPY-B42] (Ac-YKKK(MeO(CH2CH2O)23CH2CH2CO)[Ahx]ARHYINLITRQRY-NH2)
- difference from vehicle treated rats in any cardiovascular parameter measured (Sprague-Dawley rats): neither Gal-93 or NPY-B42 showed statistically significant difference from vehicle treated rats

Molecule: (Sar)WTLNSAGYLLGPKK(Lys-α-Lnn)K(Lys-MPEG24)-NH2 ([Sar]WTLNSAGYLLGPKKK(α‑Lnn)KK(MPEG24)-NH2) [Gal-100]
- AUC Acute (mice): 83.08 ± 13.34
- AUC Inflammatory (mice): 33.78 ± 3.04
- duration of licking, inflammatory phase (mice; result in words): significantly reduced

Molecule: (Sar)WTLNSAGYLLGPKK(Lys-Pal)K(Lys-MPEG24)-NH2 ([Sar]WTLNSAGYLLGPKKK(Palmitoyl)KK(MPEG24)-NH2) [Gal-81]
- AUC Acute (mice): 19.7 ± 7.2
- AUC Inflammatory (mice): 2.9 ± 2.2
- duration of licking, acute phase (mice; result in words): significantly reduced
- duration of licking, inflammatory phase (mice; result in words): significantly reduced
